Among the data in PubChem BioAssay AID1919015 (Molecular Pharmacology Branch, DTP, NCI, 2023) are IC50 and viability, T/C values, retold here.

Molecules are shown by their SMILES. “And” between values parts separate entries of the source, which are not always exact repeats. Equal entries are not always repeated.

The test system of this experiment is OVCAR-5 complex spheroids with HUVEC/MSC, viability, % test/control. Put plainly: Anticancer human tumor OVCAR-5 cell line growth inhibition [AhR].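 As to all read-outs here: spheroids exposed to compounds for 7 days.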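 As to viability, T/C: 100% = DMSO vehicle control wells.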 Conditions: for viability, T/C: stronger effect = lower value. In short, it runs like this: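 Agents were dosed in half-log steps down from roughly clinical Cmax, or from 10 microM where Cmax was unknown, alone and with AhR antagonists. Read-out: percent test/control growth of tumor spheroids containing HUVEC and MSC stromal cells.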

Where [1] appears, read: curve of first compound, second compound 0.1 µM.
The mark [2] stands for this setting: curve of first compound, second compound 0.316 µM.
Where [3] appears, read: curve of first compound, second compound 1 µM.
Where [4] appears, read: curve of first compound, second compound 3.16 µM.
Setting [5] is: curve of first compound, second compound 10 µM.
Where [6] appears, read: second compound 0.1 µM, first compound 0.0316 µM.
Where [7] appears, read: second compound 0.1 µM, first compound 0.1 µM.
[8] abbreviates: second compound 0.316 µM, first compound 0.0316 µM.
Setting [9] is: second compound 0.316 µM, first compound 0.1 µM.
[10] abbreviates: second compound 1 µM, first compound 0.0316 µM.
Where [11] appears, read: second compound 1 µM, first compound 0.1 µM.
Where [12] appears, read: second compound 3.16 µM, first compound 0.0316 µM.
Setting [13] is: second compound 3.16 µM, first compound 0.1 µM.
Setting [14] is: second compound 10 µM, first compound 0.0316 µM.
[15] abbreviates: second compound 10 µM, first compound 0.1 µM.

One may read the IC50 as the concentration at which inhibition is half-maximal. A word on the viability, T/C: it is the result in the treated group divided by that in the control group, in per cent. For `CCN(c1cc(-c2ccc(CN3CCOCC3)cc2)cc(C(=O)NCc2c(C)cc(C)[nH]c2=O)c1C)C1CCOCC1` + CC(CO)NC(=O)c1cc(-c2ccc(Cl)cc2)nn(-c2cnn(C)c2)c1=O, the IC50 was over 3000 nM under setting [1]; over 3000 nM under setting [2]; over 3000 nM under setting [3]; over 3000 nM under setting [4]; over 3000 nM under setting [5]. Also, the viability, T/C runs as follows: (second compound 0.1 µM, first compound 0.00949 µM) 114%; (second compound 0.1 µM, first compound 0.03 µM) 111%; (second compound 0.1 µM, first compound 0.0949 µM) 111%; (second compound 0.1 µM, first compound 0.3 µM) 110%; (second compound 0.1 µM, first compound 0.949 µM) 106%; (second compound 0.1 µM, first compound 3 µM) 109%. The viability, T/C is, setting by setting: (second compound 0.316 µM, first compound 0.00949 µM) 113%; (second compound 0.316 µM, first compound 0.03 µM) 117%; (second compound 0.316 µM, first compound 0.0949 µM) 114%; (second compound 0.316 µM, first compound 0.3 µM) 107%; (second compound 0.316 µM, first compound 0.949 µM) 111%; (second compound 0.316 µM, first compound 3 µM) 110%. Also, the viability, T/C reads like this: (second compound 1 µM, first compound 0.00949 µM) 116%; (second compound 1 µM, first compound 0.03 µM) 118%; (second compound 1 µM, first compound 0.0949 µM) 119%; (second compound 1 µM, first compound 0.3 µM) 115%; (second compound 1 µM, first compound 0.949 µM) 113%; (second compound 1 µM, first compound 3 µM) 117%. Moreover, the viability, T/C reads like this: (second compound 3.16 µM, first compound 0.00949 µM) 108%; (second compound 3.16 µM, first compound 0.03 µM) 113%; (second compound 3.16 µM, first compound 0.0949 µM) 107%; (second compound 3.16 µM, first compound 0.3 µM) 98.8%; (second compound 3.16 µM, first compound 0.949 µM) 91.8%; (second compound 3.16 µM, first compound 3 µM) 97.8%. For the same molecule, the viability, T/C was 102% (second compound 10 µM, first compound 0.00949 µM); 106% (second compound 10 µM, first compound 0.03 µM); 99% (second compound 10 µM, first compound 0.0949 µM); 97.7% (second compound 10 µM, first compound 0.3 µM); 98.1% (second compound 10 µM, first compound 0.949 µM); 99.9% (second compound 10 µM, first compound 3 µM).

Take `NS(=O)(=O)OCC1CC(n2ccc3c(NC4CCc5ccccc54)ncnc32)CC1O` (stereo not drawn): the viability, T/C is 99.8% and 98.4% and 111% (compound 0.0316 µM); 74.2% and 68.1% and 75% (compound 0.1 µM); 41.8% and 38.4% and 42.8% (compound 0.316 µM); 21.2% and 16.9% and 19.1% (compound 1 µM); 14.8% and 11.5% and 13% (compound 3.16 µM); 11.8% and 9.65% and 11.2% (compound 10 µM). For the setting “curve of compound”, the IC50 was 235 nM and 197 nM.

Take `CC(CO)NC(=O)c1cc(-c2ccc(Cl)cc2)nn(-c2cnn(C)c2)c1=O` (stereo not drawn): the viability, T/C runs as follows: (compound 0.1 µM) 107% [middle of 20 runs]; (compound 0.316 µM) 108% [middle of 21 runs]; (compound 1 µM) 114% [middle of 21 runs]; (compound 3.16 µM) 103% [middle of 19 runs]; (compound 10 µM) 98.4% [middle of 19 runs]. For the setting “compound alone, run of 08/08/2022”, the IC50 was over 10000 nM.

Consider `Cn1ncnc1C1c2n[nH]c(=O)c3cc(F)cc(c23)NC1c1ccc(F)cc1` (stereo not drawn) + Cc1ccccc1N=Nc1ccc(NC(=O)c2ccnn2C)c(C)c1, for which the IC50 was over 100 nM under setting [1]; over 100 nM under setting [2]; over 100 nM under setting [3]; over 100 nM under setting [4]; over 100 nM under setting [5]. The viability, T/C runs as follows: (second compound 0.1 µM, first compound 0.000316 µM) 105%; (second compound 0.1 µM, first compound 0.001 µM) 107%; (second compound 0.1 µM, first compound 0.00316 µM) 101%; (second compound 0.1 µM, first compound 0.01 µM) 96.2%; under setting [6], 94.5%; under setting [7], 90.9%. In addition, the viability, T/C was 108% (second compound 0.316 µM, first compound 0.000316 µM); 110% (second compound 0.316 µM, first compound 0.001 µM); 104% (second compound 0.316 µM, first compound 0.00316 µM); 102% (second compound 0.316 µM, first compound 0.01 µM); 96.6% under setting [8]; 98.8% under setting [9]. Further, the viability, T/C is 111% (second compound 1 µM, first compound 0.000316 µM); 113% (second compound 1 µM, first compound 0.001 µM); 111% (second compound 1 µM, first compound 0.00316 µM); 102% (second compound 1 µM, first compound 0.01 µM); 101% under setting [10]; 102% under setting [11]. Moreover, the viability, T/C is 110% (second compound 3.16 µM, first compound 0.000316 µM); 116% (second compound 3.16 µM, first compound 0.001 µM); 118% (second compound 3.16 µM, first compound 0.00316 µM); 109% (second compound 3.16 µM, first compound 0.01 µM); 101% under setting [12]; 108% under setting [13]. Also, the viability, T/C (second compound 10 µM, first compound 0.000316 µM) is 106%; the viability, T/C (second compound 10 µM, first compound 0.001 µM) was 105%; the viability, T/C (second compound 10 µM, first compound 0.00316 µM) was 102%; the viability, T/C (second compound 10 µM, first compound 0.01 µM) is 105%; the viability, T/C under setting [14] is 102%; the viability, T/C under setting [15] is 102%.

As to `Nc1ccccc1NC(=O)c1ccc(CNC(=O)OCc2cccnc2)cc1` + Cc1ccccc1N=Nc1ccc(NC(=O)c2ccnn2C)c(C)c1, the concentration for half-maximal inhibition (IC50) was found to be 913 nM under setting [1]; 824 nM under setting [2]; 856 nM under setting [3]; 827 nM under setting [4]; 1110 nM under setting [5]. The viability, T/C is 95.1% under setting [6]; 89.9% under setting [7]; 74.8% (second compound 0.1 µM, first compound 0.316 µM); 48.6% (second compound 0.1 µM, first compound 1 µM); 20.3% (second compound 0.1 µM, first compound 3.16 µM); 7.82% (second compound 0.1 µM, first compound 10 µM). In addition, the viability, T/C was 98.8% under setting [8]; 93.6% under setting [9]; 76.6% (second compound 0.316 µM, first compound 0.316 µM); 44.4% (second compound 0.316 µM, first compound 1 µM); 19.3% (second compound 0.316 µM, first compound 3.16 µM); 8.39% (second compound 0.316 µM, first compound 10 µM). For the same molecule, the viability, T/C runs as follows: under setting [10], 102%; under setting [11], 94.4%; (second compound 1 µM, first compound 0.316 µM) 83.9%; (second compound 1 µM, first compound 1 µM) 43.8%; (second compound 1 µM, first compound 3.16 µM) 18.7%; (second compound 1 µM, first compound 10 µM) 9.13%. In addition, the viability, T/C is, setting by setting: under setting [12], 103%; under setting [13], 99.9%; (second compound 3.16 µM, first compound 0.316 µM) 79.1%; (second compound 3.16 µM, first compound 1 µM) 44.1%; (second compound 3.16 µM, first compound 3.16 µM) 19%; (second compound 3.16 µM, first compound 10 µM) 9.43%. Further, the viability, T/C under setting [14] is 91.1%; the viability, T/C under setting [15] was 96.1%; the viability, T/C (second compound 10 µM, first compound 0.316 µM) is 75.4%; the viability, T/C (second compound 10 µM, first compound 1 µM) is 56%; the viability, T/C (second compound 10 µM, first compound 3.16 µM) was 19.9%; the viability, T/C (second compound 10 µM, first compound 10 µM) was 9.42%.
